From patent publication US10947252B2, “Inhibitors of KEAP1-Nrf2 protein-protein interaction” (Janssen Pharmaceutica NV, priority 2018, dated 2021)
Each block holds one compound with its values, some of them ahead of it.

Columns and labels:
[1] = biological target: Kelch domain of human KEAP1 (321-624 aa) (Homo sapiens (Human), UniProt Q14145); experiment: KEAP1 KELCH ThermoFluor binding assay; details: KEAP Kelch […], 1,8-ANS, pH 7.0, average of results obtained, read-out: Tf Kd;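 also: Ligand-induced melting temperature shift of E. coli-expressed KEAP1 Kelch protein, Kd estimated from concentration-response curves of ΔTm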
Chain of Kelch domain of human KEAP1 (321-624 aa) (Q14145 321-624): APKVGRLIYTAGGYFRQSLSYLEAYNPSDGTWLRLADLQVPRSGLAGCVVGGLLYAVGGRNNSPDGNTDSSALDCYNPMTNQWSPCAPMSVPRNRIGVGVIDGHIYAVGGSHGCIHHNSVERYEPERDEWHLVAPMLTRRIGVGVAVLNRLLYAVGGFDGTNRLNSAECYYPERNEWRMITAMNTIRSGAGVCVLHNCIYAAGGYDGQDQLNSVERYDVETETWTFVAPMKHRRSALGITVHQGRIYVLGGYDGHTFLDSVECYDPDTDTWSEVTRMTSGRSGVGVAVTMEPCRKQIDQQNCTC

[2] = test system: Glo-Response ARE-luc2P HEK293 cell line; experiment: ARE luciferase reporter cell-based assay; details: Homo sapiens, HEK293, 24 h, average of results obtained;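 also: luciferase signal tracks Nrf2 activation of the ARE once compounds disrupt KEAP1-Nrf2 binding, read with One-Glo reagent, DMSO serving as low control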

SMILES: CCc1nnc2c(C)c([C@H](CC(=O)O)c3ccc(C)c(CN4C[C@H]5CCCN5c5ncccc5S4(=O)=O)c3)ccn12 (single isomer, unassigned) [Example 283, (*R)-3-(3-(((R)-5,5-dioxido-7a,8,9,10-tetrahydropyrido[2,3-f]pyrrolo[2,1-d][1,2,5]thiadiazepin-6(7H)-yl)methyl)-4-methylphenyl)-3-(3-ethyl-8-methyl-[1,2,4]triazolo[4,3-a]pyridin-7-yl)propanoic Acid]
Kd [1]: < 1 nM
EC50 [2]: 4170 nM

SMILES: Cc1ccc([C@H](CC(=O)O)c2ccn3c(C(F)(F)F)nnc3c2C)cc1CN1CC(C)(C)Oc2ccccc2S1(=O)=O (single isomer, unassigned) [Example 284, 3-(3-((4,4-Dimethyl-1,1-dioxido-3,4-dihydro-2H-benzo[b][1,4,5]oxathiazepin-2-yl)methyl)-4-methylphenyl)-3-(8-methyl-3-(trifluoromethyl)-[1,2,4]triazolo[4,3-a]pyridin-7-yl)propanoic Acid]
Kd [1]: 1.65 nM
EC50 [2]: 213 nM

SMILES: Cc1ccc([C@H](CC(=O)O)c2ccn3c(C(F)(F)F)nnc3c2C)cc1CN1CC(C)(C)Oc2ccccc2S1(=O)=O (single isomer, unassigned) [Example 285, (*S)-3-(3-((4,4-Dimethyl-1,1-dioxido-3,4-dihydro-2H-benzo[b][1,4,5]oxathiazepin-2-yl)methyl)-4-methylphenyl)-3-(8-methyl-3-(trifluoromethyl)-[1,2,4]triazolo[4,3-a]pyridin-7-yl)propanoic Acid]
Kd [1]: 1.1 nM
EC50 [2]: 129 nM

SMILES: Cc1ccc([C@@H](CC(=O)O)c2ccn3c(C(F)(F)F)nnc3c2C)cc1CN1CC(C)(C)Oc2ccccc2S1(=O)=O (single isomer, unassigned) [Example 286, (*R)-3-(3-((4,4-Dimethyl-1,1-dioxido-3,4-dihydro-2H-benzo[b][1,4,5]oxathiazepin-2-yl)methyl)-4-methylphenyl)-3-(8-methyl-3-(trifluoromethyl)-[1,2,4]triazolo[4,3-a]pyridin-7-yl)propanoic Acid]
Kd [1]: 3.39 nM
EC50 [2]: 504 nM

SMILES: Cc1ccc([C@@H](CC(=O)O)c2ccn3c(C(F)(F)F)nnc3c2C)cc1CN1CC2(COC2)Oc2ccccc2S1(=O)=O (single isomer, unassigned) [Example 288, (*R)-3-(3-((1,1-dioxidospiro[benzo[b][1,4,5]oxathiazepine-4,3′-oxetan]-2(3H)-yl)methyl)-4-methylphenyl)-3-(8-methyl-3-(trifluoromethyl)-[1,2,4]triazolo[4,3-a]pyridin-7-yl)propanoic Acid]
Kd [1]: < 1 nM
EC50 [2]: 123 nM

SMILES: Cc1ccc([C@H](CC(=O)O)c2ccn3c(C(F)(F)F)nnc3c2C)cc1CN1C[C@@H]2CCCCN2c2ncccc2S1(=O)=O (single isomer, unassigned) [Example 290, (*S)-3-(3-(((*S)-5,5-Dioxido-7,7a,8,9,10,11-hexahydro-6H-dipyrido[2,1-d:2′,3′-f][1,2,5]thiadiazepin-6-yl)methyl)-4-methylphenyl)-3-(8-methyl-3-(trifluoromethyl)-[1,2,4]triazolo[4,3-a]pyridin-7-yl)propanoic Acid]
Kd [1]: < 1 nM
EC50 [2]: 8.8 nM

SMILES: Cc1ccc([C@@H](CC(=O)O)c2ccn3c(C(F)(F)F)nnc3c2C)cc1CN1C[C@@H]2CCCCN2c2ncccc2S1(=O)=O (single isomer, unassigned) [Example 291, (*R)-3-(3-(((*S)-5,5-Dioxido-7,7a,8,9,10,11-hexahydro-6H-dipyrido[2,1-d:2′,3′-][1,2,5]thiadiazepin-6-yl)methyl)-4-methylphenyl)-3-(8-methyl-3-(trifluoromethyl)-[1,2,4]triazolo[4,3-a]pyridin-7-yl)propanoic Acid]
Kd [1]: < 1 nM
EC50 [2]: 86.8 nM

SMILES: Cc1ccc([C@H](CC(=O)O)c2ccn3c(C(F)(F)F)nnc3c2C)cc1CN1C[C@@H]2CCN2c2ncccc2S1(=O)=O (single isomer, unassigned) [Example 292, (*S)-3-(3-(((*S)-5,5-Dioxido-7,7a,8,9-tetrahydro-6H-azeto[2,1-d]pyrido[2,3-f][1,2,5]thiadiazepin-6-yl)methyl)-4-methylphenyl)-3-(8-methyl-3-(trifluoromethyl)-[1,2,4]triazolo[4,3-a]pyridin-7-yl)propanoic Acid]
Kd [1]: < 1 nM
EC50 [2]: 68.3 nM

Further lines, with some results ahead:

Kd [1]: 2.55 nM
SMILES: Cc1ccc([C@@H](CC(=O)O)c2ccn3c(C(F)(F)F)nnc3c2C)cc1CN1C[C@@H]2CCN2c2ncccc2S1(=O)=O (single isomer, unassigned) [Example 293, (*R)-3-(3-(((*S)-5,5-Dioxido-7,7a, 8,9-tetrahydro-6H-azeto[2,1-d]pyrido[2,3-f][1,2,5]thiadiazepin-6-yl)methyl)-4-methylphenyl)-3-(8-methyl-3-(trifluoromethyl)-[1,2,4]triazolo[4,3-a]pyridin-7-yl)propanoic Acid]
EC50 [2]: 899 nM

Kd [1]: 1.61 nM
SMILES: Cc1ccc([C@H](CC(=O)O)c2ccn3c(C(F)(F)F)nnc3c2C)cc1CN1C[C@H]2CCN2c2ncccc2S1(=O)=O (single isomer, unassigned) [Example 294, (*S)-3-(3-(((*R)-5,5-Dioxido-7,7a, 8,9-tetrahydro-6H-azeto[2,1-d]pyrido[2,3-f][1,2,5]thiadiazepin-6-yl)methyl)-4-methylphenyl)-3-(8-methyl-3-(trifluoromethyl)-[1,2,4]triazolo[4,3-a]pyridin-7-yl)propanoic Acid]
EC50 [2]: 270 nM

Kd [1]: 8.07 nM
SMILES: Cc1ccc([C@@H](CC(=O)O)c2ccn3c(C(F)(F)F)nnc3c2C)cc1CN1C[C@H]2CCN2c2ncccc2S1(=O)=O (single isomer, unassigned) [Example 295, (*R)-3-(3-(((*R)-5,5-Dioxido-7,7a,8,9-tetrahydro-6H-azeto[2,1-d]pyrido[2,3-f][1,2,5]thiadiazepin-6-yl)methyl)-4-methylphenyl)-3-(8-methyl-3-(trifluoromethyl)-[1,2,4]triazolo[4,3-a]pyridin-7-yl)propanoic Acid]
EC50 [2]: 2090 nM

Kd [1]: < 1 nM
SMILES: CCn1nnc2c(C)c([C@H](CC(=O)O)c3ccc(C)c(CN4C[C@H]5CCCN5c5ncccc5S4(=O)=O)n3)ccc21 (single isomer, unassigned) [Example 297, (*S)-3-(6-(((R)-5,5-Dioxido-7a,8,9,10-tetrahydropyrido[2,3-f]pyrrolo[2,1-d][1,2,5]thiadiazepin-6(7H)-yl)methyl)-5-methylpyridin-2-yl)-3-(1-ethyl-4-methyl-1H-benzo[d][1,2,3]triazol-5-yl)propanoic Acid]
EC50 [2]: 6 nM

Kd [1]: < 1 nM
SMILES: CCn1nnc2c(C)c([C@@H](CC(=O)O)c3ccc(C)c(CN4C[C@H]5CCCN5c5ncccc5S4(=O)=O)n3)ccc21 (single isomer, unassigned) [Example 298, (*R)-3-(6-(((R)-5,5-Dioxido-7a,8,9,10-tetrahydropyrido[2,3-f]pyrrolo[2,1-d][1,2,5]thiadiazepin-6(7H)-yl)methyl)-5-methylpyridin-2-yl)-3-(1-ethyl-4-methyl-1H-benzo[d][1,2,3]triazol-5-yl)propanoic Acid]
EC50 [2]: 21.5 nM

Kd [1]: < 1 nM
SMILES: Cc1ccc([C@H](CC(=O)O)c2ccn3c(C(F)(F)F)nnc3c2C)cc1CN1C[C@H]2CCCCN2c2ccccc2S1(=O)=O (single isomer, unassigned) [Example 300, (*S)-3-(3-(((*R)-5,5-Dioxido-7,7a,8,9,10,11-hexahydro-6H-benzo[f]pyrido[2,1-d][1,2,5]thiadiazepin-6-yl)methyl)-4-methylphenyl)-3-(8-methyl-3-(trifluoromethyl)-[1,2,4]triazolo[4,3-a]pyridin-7-yl)propanoic Acid]
EC50 [2]: 5 nM

Kd [1]: < 1 nM
SMILES: CCn1nnc2c(C)c([C@H](CC(=O)O)c3ccc(C)c(CN4C[C@@H]5CCCCN5c5ncccc5S4(=O)=O)n3)ccc21 (single isomer, unassigned) [Example 302, (*S)-3-(6-(((*S)-5,5-Dioxido-7,7a,8,9,10,11-hexahydro-6H-dipyrido[2,1-d:2′,3′-][1,2,5]thiadiazepin-6-yl)methyl)-5-methylpyridin-2-yl)-3-(1-ethyl-4-methyl-1H-benzo[d][1,2,3]triazol-5-yl)propanoic Acid]
EC50 [2]: 2.8 nM

Kd [1]: < 1 nM
SMILES: CCn1nnc2c(C)c([C@@H](CC(=O)O)c3ccc(C)c(CN4C[C@@H]5CCCCN5c5ncccc5S4(=O)=O)n3)ccc21 (single isomer, unassigned) [Example 303, (*R)-3-(6-(((*S)-5,5-Dioxido-7,7a,8,9,10,11-hexahydro-6H-dipyrido[2,1-d:2′,3′-][1,2,5]thiadiazepin-6-yl)methyl)-5-methylpyridin-2-yl)-3-(1-ethyl-4-methyl-1H-benzo[d][1,2,3]triazol-5-yl)propanoic Acid]
EC50 [2]: 27.1 nM

Kd [1]: < 1 nM
SMILES: CCn1nnc2c(C)c([C@H](CC(=O)O)c3ccc(C)c(CN4C[C@H]5CCCCN5c5ncccc5S4(=O)=O)n3)ccc21 (single isomer, unassigned) [Example 305, (*S)-3-(6-(((*R)-5,5-Dioxido-7,7a,8,9,10,11-hexahydro-6H-dipyrido[2,1-d:2′,3′-][1,2,5]thiadiazepin-6-yl)methyl)-5-methylpyridin-2-yl)-3-(1-ethyl-4-methyl-1H-benzo[d][1,2,3]triazol-5-yl)propanoic Acid]
EC50 [2]: 1.7 nM

Kd [1]: < 1 nM
SMILES: CCn1nnc2c(C)c([C@@H](CC(=O)O)c3ccc(C)c(CN4C[C@H]5CCCCN5c5ncccc5S4(=O)=O)n3)ccc21 (single isomer, unassigned) [Example 306, (*R)-3-(6-(((*R)-5,5-Dioxido-7,7a,8,9,10,11-hexahydro-6H-dipyrido[2,1-d:2′,3′-f][1,2,5]thiadiazepin-6-yl)methyl)-5-methylpyridin-2-yl)-3-(1-ethyl-4-methyl-1H-benzo[d][1,2,3]triazol-5-yl)propanoic Acid]
EC50 [2]: 9.4 nM
